We go through 4 compounds from US4505908A, “7-Bromo-5-(2-halophenyl)-1H-2,3-dihydro-1,4-benzodiazepine pharmaceuticals” (priority 1981, dated 1985).

Series [1] in a line: Acute Toxicity (7-day, single application per os). The conditions noted are these: in vivo, po, single application p.o., NMRI mouse on an empty stomach. As to the method:
The acute 7-day toxicity is determined after a single application per os on the white NMRI mouse, on an empty stomach, and the LD50 values are calculated by means of electronic data processing through a probit analysis.

Series [2] in a line: Traction test (muscle relaxant activity / disturbance of muscle tone). The conditions noted are these: mouse, in vivo, po. Here is the method:
In this test the influence of the test substances on the muscle tone is evaluated. The test substance is administered orally to mice. After 120 minutes the mice are suspended by their front paws on a thin, horizontally taut wire. The dose at which exactly half the animals fail to also grasp the wire with their hind paws within 5 seconds is regarded as the ED50.
(§1) In columns 5 and 6 of the Table, the quotients which result from dividing the doses impairing muscular coordination or muscle tone by the anxiolytically effective doses are indicated.

Series [3] can be described thus: Rotating rod test (muscular coordination impairing activity). The note with it: mouse, in vivo, po. Here is the method: The ability of muscular coordination is determined in the mouse by the rotating rod test according to Blum (1973).
For this test, only male NMRI mice are used, which can support themselves for five minutes on a rotating rod with a diameter of 4 cm at a rotational speed of 12 rotations per minute.
The test substances are administered orally to the animals one hour before the commencement of the test in the form of a 2% suspension in tylose solution. The animals are each placed twice for a period of 60 seconds onto the rotating rod. Animals which cannot support themselves on the rotating rod for a total of 110 seconds are regarded as having impaired muscular coordination. The dose which brings about an impairment in 50% of the animals is regarded as the ED50.
as §1

`COCC1CN=C(c2ccccc2Cl)c2cc(Br)ccc2N1C` (stereo not drawn) registered a median lethal dose (LD50) at 168 h in series [1] of over 1470 mg/kg. The selectivity ratio stood at 7.38 in series [2] and 1.11 in series [3].

Regarding `CN1c2ccc(Br)cc2C(c2ccccc2Cl)=NCC1CO` (stereo not drawn), the LD50 at 168 h in series [1] was over 1470 mg/kg. Besides, the figures for the selectivity ratio in series [2] and in series [3] were 38.8 and 1.3, respectively.

Take `COCC1CN=C(c2ccccc2Cl)c2cc(Br)ccc2N1` (stereo not drawn) [Ex 2, 7-Bromo-2-methoxymethyl-5-(2-chlorophenyl)-1H-2,3-dihydro-1,4-benzodiazepin]: in series [1], the LD50 at 168 h turned out to be 1330 mg/kg. Further, the values for the selectivity ratio in series [2] and in series [3] were 54.2 and 5.38, respectively.

In the case of `OCC1CN=C(c2ccccc2Cl)c2cc(Br)ccc2N1` (stereo not drawn) [Ex 4, 7-Bromo-2-hydroxymethyl-5-(2-chlorophenyl)-1H-2,3-dihydro-1,4-benzodiazepine], the LD50 at 168 h in series [1] was over 1370 mg/kg. Further, the selectivity ratio is 164 in series [2] and 8.6 in series [3].
